# pIC50: −log10 of the molar value.
# Assays:
# [1] = molecular target: T1, human H3 receptor (Homo sapiens, UniProt Q9Y5N1); assay: In vitro H3 functional assay (cAMP response element driven luciferase reporter); assay type: cell-based; details: CHO(dhfr+)-cre-luc cells expressing human H3 receptor; RαMH 10 nM, forskolin 1 μM; read-out: hH3 functional IC50
# T1 construct: expressed in transfected cells
# Procedure, shortened: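 CHO-cre-luc cells stably expressing human H3 were preincubated 5 min with compound, then treated with RαMH (10 nM), IBMX (500 μM) and forskolin (1 μM) for 90 min at 37 °C. CRE-luciferase luminescence was read; IC50 from ten-point half-log curves in duplicate, four-parameter fit.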
# [2] = molecular target: T1, human H3 receptor; assay: In vitro H3 binding assay (3H-N-α-methyl-histamine competition binding); details: membranes of CHO-K1 cells expressing human H3 receptor; 2 nM 3H-NαMH; read-out: hH3 binding IC50
# Procedure, shortened: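 Membranes from CHO-K1 cells stably expressing human H3 (5 μg/well) incubated 1 h at room temperature with compound and 2 nM ³H-NαMH in 50 mM Tris-HCl pH 7.4, 5 mM MgCl2; non-specific binding defined with 1 μM RαMH. Bound radioactivity measured by filtration and scintillation; IC50 from seven-point curves by variable-slope sigmoidal regression.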
# T1 sequence (Q9Y5N1 whole entry): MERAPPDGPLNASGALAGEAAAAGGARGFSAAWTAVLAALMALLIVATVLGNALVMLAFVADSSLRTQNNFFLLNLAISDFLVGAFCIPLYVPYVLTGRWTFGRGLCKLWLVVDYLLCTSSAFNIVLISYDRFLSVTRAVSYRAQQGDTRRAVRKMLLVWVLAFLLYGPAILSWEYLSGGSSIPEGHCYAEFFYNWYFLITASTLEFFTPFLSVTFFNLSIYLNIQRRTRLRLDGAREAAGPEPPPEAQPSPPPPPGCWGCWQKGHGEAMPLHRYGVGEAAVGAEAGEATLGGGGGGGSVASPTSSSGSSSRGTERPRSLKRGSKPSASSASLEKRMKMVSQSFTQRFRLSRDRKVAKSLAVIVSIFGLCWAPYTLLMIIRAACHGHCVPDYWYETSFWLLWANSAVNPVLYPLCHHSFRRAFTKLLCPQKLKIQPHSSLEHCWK
Structure (SMILES),pIC50 [1],pIC50 [2]
"O=C(NCc1ccc2c(c1)CCN(C1CCC1)CC2)c1cnc(N2CCCC2)nc1 [Example 256, N-((3-cyclobutyl-2,3,4,5-tetrahydro-1H-benzo[d]azepin-7-yl)methyl)-2-(pyrrolidin-1-yl)pyrimidine-5-carboxamide]",8.52,9.52
"COc1ccc(C(=O)NCc2ccc3c(c2)CCN(C2CC(O)C2)CC3)cn1 (stereo not drawn) [Example 262, N-((3-(3-hydroxycyclobutyl)-2,3,4,5-tetrahydro-1H-benzo[d]azepin-7-yl)methyl)-6-methoxynicotinamide]",8.00,7.60
"Cc1noc(C)c1C(=O)NCc1ccc2c(c1)CCN(C1CCC1)CC2 [Example 263, N-[(3-cyclobutyl-2,3,4,5-tetrahydro-1H-3-benzazepin-7-yl)methyl]-3,5-dimethyl-1,2-oxazole-4-carboxamide]",8.22,7.74
"C[C@@H]1CCCN1C(=O)NCc1ccc2c(c1)CCN(C1CCC1)CC2 [Example 265, (R)—N-((3-cyclobutyl-2,3,4,5-tetrahydro-1H-benzo[d]azepin-7-yl)methyl)-2-methylpyrrolidine-1-carboxamide]",8.40,8.22
"O=C1CCCN1Cc1ccc2c(c1)CCN(C1CCC1)CC2 [Example 304, 1-((3-cyclobutyl-2,3,4,5-tetrahydro-1H-benzo[d]azepin-7-yl)methyl)pyrrolidin-2-one]",7.47,7.21
"CCCOc1ccc(C(=O)NCc2ccc3c(c2)CCN(C2CCC2)CC3)cn1 [Example 306, N-((3-cyclobutyl-2,3,4,5-tetrahydro-1H-benzo[d]azepin-7-yl)methyl)-6-propoxynicotinamide]",8.70,7.74
